Source: ChEMBL document CHEMBL1134774, “Design, synthesis, and structure-activity relationships of a series of 3-[2-(1-benzylpiperidin-4-yl)ethylamino]pyridazine derivatives as acetylcholinesterase inhibitors” (J Med Chem, 2001)

Legend:
Acetylcholinesterase [1] = biological target: Acetylcholinesterase (Electrophorus electricus, UniProt O42275)
Description: In vitro inhibition of electric eel acetylcholinesterase

Acetylcholinesterase [2] = biological target: Acetylcholinesterase (Homo sapiens, UniProt P22303)
Description: In vitro inhibition of acetylcholinesterase from human erythrocytes

Cholinesterase = Cholinesterase (Homo sapiens, UniProt P06276)
Description: Inhibition of butyrylcholinesterase from human serum

[3] = biological target: T1, Choline O-acetyltransferase (Rattus norvegicus) (UniProt P32738); assay: IC50 (hBuChE/hAChE) ratio of the compound
T1 sequence (whole entry): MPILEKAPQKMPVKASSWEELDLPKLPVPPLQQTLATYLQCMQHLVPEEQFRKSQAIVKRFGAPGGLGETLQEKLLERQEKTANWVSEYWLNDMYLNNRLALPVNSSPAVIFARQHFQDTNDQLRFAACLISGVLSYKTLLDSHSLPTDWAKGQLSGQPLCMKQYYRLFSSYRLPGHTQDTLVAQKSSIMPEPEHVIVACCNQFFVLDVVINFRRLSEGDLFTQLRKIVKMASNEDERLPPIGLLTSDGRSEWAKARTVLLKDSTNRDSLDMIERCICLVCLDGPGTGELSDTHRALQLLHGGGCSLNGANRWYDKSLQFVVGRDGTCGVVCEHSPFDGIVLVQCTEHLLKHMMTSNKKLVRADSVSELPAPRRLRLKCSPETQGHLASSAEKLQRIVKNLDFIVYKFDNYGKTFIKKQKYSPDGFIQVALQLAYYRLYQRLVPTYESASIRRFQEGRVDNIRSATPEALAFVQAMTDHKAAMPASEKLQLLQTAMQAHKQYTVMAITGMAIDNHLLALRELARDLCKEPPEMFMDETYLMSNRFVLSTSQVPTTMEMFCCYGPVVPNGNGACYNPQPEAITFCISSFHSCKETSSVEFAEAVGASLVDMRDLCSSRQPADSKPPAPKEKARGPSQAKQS

Sequence of Acetylcholinesterase (Homo sapiens, UniProt P22303) (P22303 whole entry): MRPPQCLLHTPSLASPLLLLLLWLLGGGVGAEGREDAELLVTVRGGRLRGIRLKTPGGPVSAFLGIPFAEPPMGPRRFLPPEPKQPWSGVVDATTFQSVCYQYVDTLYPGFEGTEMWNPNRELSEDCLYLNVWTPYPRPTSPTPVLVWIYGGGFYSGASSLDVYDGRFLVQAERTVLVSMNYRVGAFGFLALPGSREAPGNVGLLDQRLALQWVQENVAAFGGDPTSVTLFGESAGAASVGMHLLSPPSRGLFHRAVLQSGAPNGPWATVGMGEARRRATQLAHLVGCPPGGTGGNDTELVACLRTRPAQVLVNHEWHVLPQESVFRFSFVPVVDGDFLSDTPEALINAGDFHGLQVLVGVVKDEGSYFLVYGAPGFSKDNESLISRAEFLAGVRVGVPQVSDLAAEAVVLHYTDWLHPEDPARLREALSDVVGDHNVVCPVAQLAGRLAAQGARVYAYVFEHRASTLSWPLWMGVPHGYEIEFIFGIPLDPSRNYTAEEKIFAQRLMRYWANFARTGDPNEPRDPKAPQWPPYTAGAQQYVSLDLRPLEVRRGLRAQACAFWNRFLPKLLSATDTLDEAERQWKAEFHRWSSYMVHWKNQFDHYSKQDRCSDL
Sequence of Cholinesterase (P06276 whole entry): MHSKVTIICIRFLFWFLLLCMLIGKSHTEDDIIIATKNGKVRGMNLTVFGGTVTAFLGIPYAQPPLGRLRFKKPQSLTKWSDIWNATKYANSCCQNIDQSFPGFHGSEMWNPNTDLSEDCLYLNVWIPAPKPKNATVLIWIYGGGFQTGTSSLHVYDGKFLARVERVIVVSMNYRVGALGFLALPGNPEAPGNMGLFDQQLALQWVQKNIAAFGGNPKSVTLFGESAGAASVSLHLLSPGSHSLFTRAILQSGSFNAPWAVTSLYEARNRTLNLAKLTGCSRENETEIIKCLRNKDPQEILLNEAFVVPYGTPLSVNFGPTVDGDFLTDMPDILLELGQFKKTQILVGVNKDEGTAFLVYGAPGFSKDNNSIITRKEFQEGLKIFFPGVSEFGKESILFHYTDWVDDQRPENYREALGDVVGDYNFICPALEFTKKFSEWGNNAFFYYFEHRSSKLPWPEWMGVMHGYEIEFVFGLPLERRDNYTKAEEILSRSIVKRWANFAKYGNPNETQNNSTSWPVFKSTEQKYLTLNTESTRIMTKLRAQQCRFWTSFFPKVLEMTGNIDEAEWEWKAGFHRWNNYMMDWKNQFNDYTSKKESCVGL
Sequence of Acetylcholinesterase (Electrophorus electricus, UniProt O42275) (O42275 whole entry): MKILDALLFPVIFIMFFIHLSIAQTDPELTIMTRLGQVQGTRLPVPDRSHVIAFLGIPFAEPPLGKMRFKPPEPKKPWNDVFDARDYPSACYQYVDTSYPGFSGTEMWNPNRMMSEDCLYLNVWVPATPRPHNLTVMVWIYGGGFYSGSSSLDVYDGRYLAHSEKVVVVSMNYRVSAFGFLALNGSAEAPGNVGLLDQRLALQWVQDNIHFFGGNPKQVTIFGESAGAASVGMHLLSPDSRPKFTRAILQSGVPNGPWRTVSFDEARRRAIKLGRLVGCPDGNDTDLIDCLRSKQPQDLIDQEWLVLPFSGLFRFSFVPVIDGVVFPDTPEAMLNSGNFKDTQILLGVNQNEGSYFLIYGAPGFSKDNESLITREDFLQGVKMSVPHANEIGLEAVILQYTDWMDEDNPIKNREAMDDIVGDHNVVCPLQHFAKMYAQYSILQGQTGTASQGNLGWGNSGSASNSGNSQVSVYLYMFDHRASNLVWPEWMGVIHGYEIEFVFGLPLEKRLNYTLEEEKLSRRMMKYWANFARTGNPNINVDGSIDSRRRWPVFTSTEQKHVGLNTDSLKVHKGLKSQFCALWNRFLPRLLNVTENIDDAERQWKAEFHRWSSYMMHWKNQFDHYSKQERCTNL

## FC(F)(F)c1cc(-c2ccc(NCCC3CCN(Cc4ccccc4)CC3)nn2)cc(C(F)(F)F)c1
Acetylcholinesterase [1]
  IC50: 56 nM

## COc1ccccc1-c1ccc(NCCC2CCN(Cc3ccccc3)CC2)nn1
Acetylcholinesterase [1]
  IC50: 110 nM

## Clc1ccc(NCCC2CCN(Cc3ccccc3)CC2)nn1
Acetylcholinesterase [1]
  IC50: 73 nM

## O=C(CN1CCC(Cc2ccccc2)CC1)Nc1ccc(-c2ccccc2)nn1
Acetylcholinesterase [1]
  IC50: 18000 nM

## c1ccc(CN2CCC(CCNc3ccc(-c4cccnc4)nn3)CC2)cc1
Acetylcholinesterase [1]
  IC50: 57 nM

## c1ccc(CC2CCN(CCNc3ccc(-c4ccccc4)nn3)CC2)cc1
Acetylcholinesterase [1]
  IC50: 24000 nM

## O=C(CNc1ccc(-c2ccccc2)nn1)N1CCC(Cc2ccccc2)CC1
Acetylcholinesterase [1]
  IC50: 120000 nM

## Cc1cc(=NCCC2CCN(Cc3ccccc3)CC2)[nH]nc1-c1ccccc1
Acetylcholinesterase [2]
  IC50: 39 nM
Acetylcholinesterase [1]
  IC50: 21 nM
Cholinesterase
  IC50: 940 nM
[3]
  IC50 ratio: 24

## c1ccc(CN2CCC(CCOc3ccc(-c4ccccc4)nn3)CC2)cc1
Acetylcholinesterase [2]
  IC50: 710 nM
Acetylcholinesterase [1]
  IC50: 140000 nM
Cholinesterase
  IC50: 1600 nM

## c1ccc(CN2CCC(CCN=c3[nH]nc(-c4ccccc4)c4ccccc34)CC2)cc1
Acetylcholinesterase [1]
  IC50: 440 nM

## CCCc1cc(=NCCC2CCN(Cc3ccccc3)CC2)[nH]nc1-c1ccccc1
Acetylcholinesterase [1]
  IC50: 61 nM

## N#Cc1ccc(-c2ccc(NCCC3CCN(Cc4ccccc4)CC3)nn2)cc1
Acetylcholinesterase [1]
  IC50: 100 nM

## Cc1cc(C)c(-c2ccc(NCCC3CCN(Cc4ccccc4)CC3)nn2)c(C)c1
Acetylcholinesterase [1]
  IC50: 3000 nM

## CC(=O)c1cccc(-c2ccc(NCCC3CCN(Cc4ccccc4)CC3)nn2)c1
Acetylcholinesterase [1]
  IC50: 54 nM

## CCc1ccccc1-c1ccc(NCCC2CCN(Cc3ccccc3)CC2)nn1
Acetylcholinesterase [1]
  IC50: 87 nM

## c1ccc(CN2CCC(CCN=c3cc4c(n[nH]3)-c3ccccc3C4)CC2)cc1
Acetylcholinesterase [2]
  IC50: 74 nM
Acetylcholinesterase [1]
  IC50: 10 nM
Cholinesterase
  IC50: 230 nM
[3]
  IC50 ratio: 3.1

## CC(=O)Nc1cccc(-c2ccc(NCCC3CCN(Cc4ccccc4)CC3)nn2)c1
Acetylcholinesterase [1]
  IC50: 58 nM

## c1ccc(CN2CCC(CCNc3ccc(-c4ccccc4)nn3)CC2)cc1
Acetylcholinesterase [1]
  IC50: 120 nM
[3]
  IC50 ratio: 5

## Cc1cc(-c2ccccc2)nnc1NCCC1CCN(Cc2ccccc2)CC1
Acetylcholinesterase [1]
  IC50: 320 nM

## c1ccc(CN2CCC(CCNc3cccnn3)CC2)cc1
Acetylcholinesterase [1]
  IC50: 240 nM

## O=C(CN1CCN(Cc2ccccc2)CC1)Nc1ccc(-c2ccccc2)nn1
Acetylcholinesterase [1]
  IC50: 17000 nM

## COc1ccc(NCCC2CCN(Cc3ccccc3)CC2)nn1
Acetylcholinesterase [1]
  IC50: 220 nM

## CCc1cc(=NCCC2CCN(Cc3ccccc3)CC2)[nH]nc1-c1ccccc1
Acetylcholinesterase [2]
  IC50: 66 nM
Acetylcholinesterase [1]
  IC50: 27 nM
Cholinesterase
  IC50: 920 nM
[3]
  IC50 ratio: 14

## Fc1ccc(-c2ccc(NCCC3CCN(Cc4ccccc4)CC3)nn2)cc1
Acetylcholinesterase [1]
  IC50: 350 nM

## c1ccc(CN2CCC(CCNc3cc4c(nn3)-c3ccccc3CCC4)CC2)cc1
Acetylcholinesterase [2]
  IC50: 120 nM
Acetylcholinesterase [1]
  IC50: 22 nM
Cholinesterase
  IC50: 510 nM

## CN(C)c1ccc(-c2ccc(NCCC3CCN(Cc4ccccc4)CC3)nn2)cc1
Acetylcholinesterase [1]
  IC50: 210 nM

## O=C(CC1CCN(Cc2ccccc2)CC1)Nc1ccc(-c2ccccc2)nn1
Acetylcholinesterase [1]
  IC50: 4200 nM

## c1ccc(CN2CCC(CCNc3cc4c(nn3)-c3ccccc3CC4)CC2)cc1
Acetylcholinesterase [2]
  IC50: 190 nM
Acetylcholinesterase [1]
  IC50: 39 nM
Cholinesterase
  IC50: 280 nM
[3]
  IC50 ratio: 1.5

## c1ccc(CN2CCC(CCNc3ccc(-c4ccc5ccccc5c4)nn3)CC2)cc1
Acetylcholinesterase [1]
  IC50: 56 nM

## CC(C)c1cc(-c2ccccc2)nnc1NCCC1CCN(Cc2ccccc2)CC1
Acetylcholinesterase [1]
  IC50: 430 nM

## c1ccc(CN2CCC(CCSc3ccc(-c4ccccc4)nn3)CC2)cc1
Acetylcholinesterase [2]
  IC50: 470 nM
Acetylcholinesterase [1]
  IC50: 63000 nM
Cholinesterase
  IC50: 480 nM

## Clc1ccccc1-c1ccc(NCCC2CCN(Cc3ccccc3)CC2)nn1
Acetylcholinesterase [1]
  IC50: 80 nM

## c1ccc(CN2CCC(CCNc3ccc(-c4cccs4)nn3)CC2)cc1
Acetylcholinesterase [1]
  IC50: 97 nM

## c1ccc(CN2CCC(CCNc3cc4ccc5ccccc5c4nn3)CC2)cc1
Acetylcholinesterase [2]
  IC50: 190 nM
Acetylcholinesterase [1]
  IC50: 22 nM
Cholinesterase
  IC50: 270 nM

## Cc1ccccc1-c1ccc(NCCC2CCN(Cc3ccccc3)CC2)nn1
Acetylcholinesterase [1]
  IC50: 90 nM

## O=C(CNc1ccc(-c2ccccc2)nn1)N1CCN(Cc2ccccc2)CC1
Acetylcholinesterase [1]
  IC50: 15000 nM
